Values joined by “and” are separate entries in the source; they are usually repeats but may differ in a detail not shown here. Equal entries are not always repeated. Where two headings read alike, the source gives them in different places.
Legend:
ICR strain mice [1] = assay: Acute toxicity study, oral gavage; format: in vivo
Procedure: Twenty four male and female SPF-grade ICR strain mice were randomly divided into 6 groups of 4 mice each. Compound 16C was dissolved in DMSO at doses of 0, 8, 40, 200, 1,000, and 5,000 mg/kg and was administered to the mice by gavage.
(§1) Ten mice were gavaged with 5,000 mg/kg of compound 16C and another 10 mice were given DMSO orally as a control. The mice were fed and watered ad libitum. The animals’ appearance, diet, behavior, and death were observed and recorded for 14 consecutive days after administration. The LD50 was calculated as previously described ([Xiao et al., 2019]), and the test was repeated twice. To assess the acute toxicity of intramuscular administration in mice, we repeated the above experiment and replaced gavage with intramuscular injection.

RAW 264.7 = tested on: RAW 264.7; parameters: method as in PMID 26150841; conditions: RAW 264.7, 8 μg/mL, compared with the control drugs; ref [30]; cited from earlier work
ICR strain mice [2] = assay: Acute toxicity study, intramuscular injection; format: in vivo
Procedure: as §1

[3] = parameters: method as in Shang et al., 2018; Xianhui, 2010; conditions: piglets, IM; ref Shang et al., 2018; Xianhui, 2010; cited from earlier work
mice = conditions: acute oral toxicity, ref EMA, 1999, cited from earlier work

Row | SMILES | deaths (pre-test) (ICR strain mice [1]; gavage 8, 40, 200, 1,000, and 5,000 mg/kg in DMSO, observed 14 d) | mouse deaths (ICR strain mice [1]; oral gavage, single dose of 5,000 mg/kg, after 2 weeks) | LD50 (ICR strain mice [1]; oral gavage, single dose, mice, observed 14 d) | symptoms observed (ICR strain mice [1]; single dose of 5,000 mg/kg, oral gavage or intramuscular injection, mice rapidly recovered) | influence on cell viability (RAW 264.7) | mouse deaths (ICR strain mice [2]; single dose of 5,000 mg/kg, after 2 weeks) | LD50 (ICR strain mice [2]; single dose, mice, observed 14 d) | bioavailability [3] | LD50 (mice; female mice) | LD50 (mice; male mice)
1 | C=CC1(C)CC(OC(=O)CSc2ccc(NC(=O)Cc3ccc([N+](=O)[O-])cc3)cc2)C2(C)C(C)CCC3(CCC(=O)C32)C(C)C1O (stereo not shown) [compound 16C, 22–((4-((4-nitrophenyl)acetamido)phenyl)thio)deoxypleuromutilin] | no deaths were observed | did not result in any mouse deaths | > 5,000 mg/kg | anorexic symptoms | only slight influences on the viability | did not result in any mouse deaths | > 5,000 mg/kg |  |  | 
2 | C=C[C@]1(C)C[C@@H](OC(=O)CSCCN(CC)CC)[C@]2(C)[C@H](C)CC[C@]3(CCC(=O)[C@H]32)[C@@H](C)[C@@H]1O [tiamulin, Tiamulin, reference compound] |  |  |  |  |  |  |  | 73.51% and 75.73% | 650 mg/kg | 770 mg/kg
